Measurements: BindingDB's records for doi:10.1021/jm970373j (Parke-Davis Pharmaceutical Research, 1998)

Molecular target: Gastrin/cholecystokinin type B receptor (Cavia porcellus)
Assay: Compound was evaluated for functional activity on Cholecystokinin type B receptor (CCK-B) receptor carried out on guinea pig stomach cells.

| IC50 [nM] | Compound |
| --- | --- |
| 54 | CC(C)Oc1cccc(-n2c(NNC(=O)Nc3ccc(Br)cc3)nc3ccccc3c2=O)c1 [N-(4-Bromophenyl)-2-[3,4-dihydro-3-[3-(1-methylethoxy)phenyl]-4-oxo-2-quinazolinyl]hydrazinecarboxamide] |
| 22 | CCOC(=O)c1cccc(NC(=O)NNc2nc3ccccc3c(=O)n2-c2cccc(OC(C)C)c2)c1 [N-(3-ethylesterbenzoicacid)-2-[3,4-dihydro-3-[(3-Isopropoxy)phenyl]-4-oxo-2-quinazolinyl]hydrazinecarboxamide] |
| 33 | CCOC(=O)c1cccc(NC(=O)NNc2nc3ccccc3c(=O)n2-c2ccc(Cl)cc2)c1 [N-(3-ethylesterbenzoicacid)-2-[3,4-dihydro-3-[(4-chloro)-phenyl]-4-oxo-2-quinazolinyl]hydrazinecarboxamide] |
